# From patent publication US20250108065A1 (AstraZeneca AB, priority 2022, published 2025)
# Where two headings read alike, the source gives them in different places.
# Tests used:
# [1] = DECLARE subgroup: HbA1c <7%, eGFR ≥60 ml/min/1.73 m^2, no history of HF, UACR ≤300 mg/g; Dapa 10 mg vs placebo
# Description: CI refers to Confidence interval; D refers to Dapa 10 mg; FAS refers to Full analysis set; HR refers to Hazard ratio; N refers to Number of participants; P refers to Placebo; refers to UACR Urinary albumin-to-creatinine ratio; and N at risk is the number of participants at risk at the beginning of the period.
# For the purposes of the analysis, 1 month corresponds to 30 days. […] HR, CI, and p-value are from a Cox proportional hazard model. Blood pressure categories include normal (SBP <120 mmHg and DBP <80 mmHg); elevated (SBP 120-129 mmHg and DBP <80 mmHg); hypertension stage 1 (SBP 130-139 mmHg or DBP 80-89 mmHg); hypertension stage 2 (SBP >140 mmHg or DBP >90 mmHg); hypertensive crisis (SBP >180 mmHg and/or DBP >120 mmHg).
# [2] = non-diabetic and prediabetic patients, DAPA-HF and DAPA-CKD, 10 mg once daily
# Description: DAPA-HF and DAPA-CKD included patients without diabetes, including those who qualify as prediabetic.
# [3] = Experimental: The DECLARE study enrolled a broad T2D patient population. By using parameters to select for a relatively healthy population that is close to the prediabetes population, the DECLARE population was split into 4 subgroups. The four subgroups in DECLARE are those with eGFR ≥60 ml/min/1.73 m^2, no history of HF at baseline and: • 1. HbA1c <7%, SBP <140 mmHg, and UACR ≤300 mg/g, or • 2. HbA1c <7%, SBP <140 mmHg, and UACR <30 mg/g, or • 3. T2D <5 years and UACR ≤300 mg/g, or • 4. T2D <5 years and UACR ≤30 mg/g.
# (§1) (See Inker et al., GFR Slope as a Surrogate End Point for Kidney Disease Progression in Clinical Trials: A Meta-Analysis of Treatment Effects of Randomized Controlled Trials. J Am Soc Nephrol. 2019; 30 (9): 1735-45; Levey et al., GFR decline as an end point for clinical trials in CKD. Am J Kidney Dis. 2014; 64 (6): 821-35.)
# [4] = DAPA-HF
# [5] = Meta-analysis DAPA-HF/CKD, cited from earlier work
# [6] = DAPA-HF, HbA1C < 6.5%, cited from earlier work
# [7] = DAPA-HF; remark: listed apart in the source
# [8] = remark: listed apart in the source
# Description: (§2) “eGFR slope” is the change in […] over time. “eGFR” stands for the estimated glomerular filtration rate.
# as §1
# (§3) The patients without diabetes (or T2D) included those with prediabetes.
# [9] = DAPA-CKD
# [10] = DAPA-HF (prediabetes); slope at 14-720 days
# Description: as §2, §1
# [11] = DAPA-CKD, HbA1C < 6.5%, cited from earlier work
# [12] = DAPA-CKD; remark: listed apart in the source
# Description: as §3
# [13] = pre-diabetic 5.7% ≤ HbA1c < 6.5, Dapa vs placebo
compound,measurement,setting,value
CCOc1ccc(Cc2cc([C@@H]3O[C@H](CO)[C@@H](O)[C@H](O)[C@H]3O)ccc2Cl)cc1 [dapagliflozin],risk of worsening blood pressure (time to worsening in blood pressure category),[1],lowered the risk of worsening blood pressure compared with placebo
same,Events of definite or probable diabetic ketoacidosis (DKA),[2],not observed
same,major hypoglycemic AEs,[2],not observed
same,safety profile,[2],consistent with the profile established in patients with T2D
same,"eGFR chronic slope, Slope diff between Dapa 10 mg and Placebo","[3]; DECLARE (Total Population), 6 months-2 yrs",1.34 ml/min/1.73 m^2/yr
same,"eGFR chronic slope, Slope diff between Dapa 10 mg and Placebo","[3]; DECLARE (Total Population), 6 months-3 yrs",1.18 ml/min/1.73 m^2/yr
same,"eGFR chronic slope, Slope diff between Dapa 10 mg and Placebo","[3]; DECLARE (Total Population), 6 months-4 yrs",1.01 ml/min/1.73 m^2/yr
same,"eGFR chronic slope, Slope diff between Dapa 10 mg and Placebo","[3]; DECLARE subgroup HbA1c <7%, SBP <140 mmHg, UACR <30 mg/g, eGFR ≥60, no HF, 6 months-2 yrs",1.25 ml/min/1.73 m^2/yr
same,"eGFR chronic slope, Slope diff between Dapa 10 mg and Placebo","[3]; DECLARE subgroup HbA1c <7%, SBP <140 mmHg, UACR <30 mg/g, eGFR ≥60, no HF, 6 months-3 yrs",1.17 ml/min/1.73 m^2/yr
same,"eGFR chronic slope, Slope diff between Dapa 10 mg and Placebo","[3]; DECLARE subgroup HbA1c <7%, SBP <140 mmHg, UACR <30 mg/g, eGFR ≥60, no HF, 6 months-3 yrs, listed as Dapa",1.71 ml/min/1.73 m^2/yr
same,"eGFR chronic slope, Slope diff between Dapa 10 mg and Placebo","[3]; DECLARE subgroup HbA1c <7%, SBP <140 mmHg, UACR <30 mg/g, eGFR ≥60, no HF, 6 months-4 yrs",0.98 ml/min/1.73 m^2/yr
same,"eGFR chronic slope, Slope diff between Dapa 10 mg and Placebo","[3]; DECLARE subgroup HbA1c <7%, SBP <140 mmHg, UACR ≤300 mg/g, eGFR ≥60, no HF, 6 months-2 yrs",1.56 ml/min/1.73 m^2/yr
same,"eGFR chronic slope, Slope diff between Dapa 10 mg and Placebo","[3]; DECLARE subgroup HbA1c <7%, SBP <140 mmHg, UACR ≤300 mg/g, eGFR ≥60, no HF, 6 months-3 yrs",1.85 ml/min/1.73 m^2/yr
same,"eGFR chronic slope, Slope diff between Dapa 10 mg and Placebo","[3]; DECLARE subgroup HbA1c <7%, SBP <140 mmHg, UACR ≤300 mg/g, eGFR ≥60, no HF, 6 months-4 yrs",1.08 ml/min/1.73 m^2/yr
same,"eGFR chronic slope, Slope diff between Dapa 10 mg and Placebo","[3]; DECLARE subgroup diabetes duration <5 years, UACR ≤30 mg/g, eGFR ≥60, no HF, 6 months-2 yrs",1.03 ml/min/1.73 m^2/yr
same,"eGFR chronic slope, Slope diff between Dapa 10 mg and Placebo","[3]; DECLARE subgroup diabetes duration <5 years, UACR ≤30 mg/g, eGFR ≥60, no HF, 6 months-3 yrs",0.96 ml/min/1.73 m^2/yr
same,"eGFR chronic slope, Slope diff between Dapa 10 mg and Placebo","[3]; DECLARE subgroup diabetes duration <5 years, UACR ≤30 mg/g, eGFR ≥60, no HF, 6 months-4 yrs",0.86 ml/min/1.73 m^2/yr
same,"eGFR chronic slope, Slope diff between Dapa 10 mg and Placebo","[3]; DECLARE subgroup diabetes duration <5 years, UACR ≤300 mg/g, eGFR ≥60, no HF, 6 months-2 yrs",0.88 ml/min/1.73 m^2/yr
same,"eGFR chronic slope, Slope diff between Dapa 10 mg and Placebo","[3]; DECLARE subgroup diabetes duration <5 years, UACR ≤300 mg/g, eGFR ≥60, no HF, 6 months-3 yrs",0.92 ml/min/1.73 m^2/yr
same,"eGFR chronic slope, Slope diff between Dapa 10 mg and Placebo","[3]; DECLARE subgroup diabetes duration <5 years, UACR ≤300 mg/g, eGFR ≥60, no HF, 6 months-4 yrs",0.86 ml/min/1.73 m^2/yr
same,renal benefits following dapagliflozin treatment,"[3]; DECLARE, T2D patients with eGFR 60 to 90 and ≥90 ml/min/1.73 m^2",reduced eGFR decline and albuminuria
same,"HR, primary composite outcome (CV death, hospitalization for HF, or urgent HF visit)",[4]; patients with diabetes,0.75
same,"HR, primary composite outcome (CV death, hospitalization for HF, or urgent HF visit)",[4]; patients without diabetes,0.73
same,Event rate of new onset T2D,"[5]; HbA1c < 6.5%, 4003 participants",Dapa: 2.6 per 100 patient-years of follow-up
same,HR (95% CI) new onset T2D,"[5]; HbA1c < 6.5%, Dapa vs placebo","0.67 (0.51, 0.88)"
same,Event rate of new onset T2D,"[5]; pre-diabetic 5.7% ≤ HbA1c < 6.5, 2408 participants",Dapa: 4.2 per 100 patient-years of follow-up
same,HR (95% CI) new onset T2D,[5]; [13],"0.69 (0.52, 0.91)"
same,Event rate of new onset T2D,[6]; 2605 participants,Dapa: 5.0 per 100 patient-years of follow-up
same,HR (95% CI) new onset T2D,[6]; Dapa vs placebo,"0.68 (0.50, 0.94)"
same,Event rate of new onset T2D,"[7]; pre-diabetic 5.7% ≤ HbA1C < 6.5, 1748 participants",Dapa: 5.3 per 100 patient-years of follow-up
same,HR (95% CI) new onset T2D,"[7]; pre-diabetic 5.7% ≤ HbA1C < 6.5, Dapa vs placebo","0.72 (0.52, 0.99)"
same,"eGFR chronic slope, Slope diff between Dapa 10 mg and Placebo","[8]; DAPA-CKD (prediabetes), slope at 14 days-30 months",1.44 ml/min/1.73 m^2/yr
same,placebo-corrected difference in eGFR slope,"[8]; DAPA-CKD, T2D patients, from baseline to end of treatment",1.18 ml/min/1.73 m^2/yr
same,placebo-corrected difference in eGFR slope,"[8]; DAPA-CKD, T2D patients, from two weeks to end of treatment",2.26 ml/min/1.73 m^2/yr
same,placebo-corrected difference in eGFR slope,"[8]; DAPA-CKD, patients without T2D, from baseline to end of treatment",0.46 ml/min/1.73 m^2/yr
same,placebo corrected difference in eGFR slope,"[8]; DAPA-CKD, patients without T2D, from two weeks to end of treatment",1.29 ml/min/1.73 m^2/yr
same,Event rate of new onset T2D,"[9]; pre-diabetic 5.7% ≤ HbA1c < 6.5, 660 participants",Dapa: 2.7 per 100 patient-years of follow-up
same,HR (95% CI) new onset T2D,[9]; [13],"0.59 (0.33, 1.04)"
same,"eGFR chronic slope, Slope diff between Dapa 10 mg and Placebo",[10],1.35 ml/min/1.73 m^2/yr
same,Event rate of new onset T2D,[11]; 1398 participants,Dapa: 1.4 per 100 patient-years of follow-up
same,HR (95% CI) new onset T2D,[11]; Dapa vs placebo,"0.62 (0.36, 1.07)"
same,"HR, primary composite outcome of worsening of kidney function or death",[12]; patients with diabetes,0.64
same,"HR, primary composite outcome of worsening of kidney function or death",[12]; patients without diabetes,0.50
